Key:
Format in all cases: cell-based, human
TLR3 = test: qRT-PCR RNA expression of TLR3 gene in LS174T cells exposed to HMO; settings: 48 hours; for fold change in RNA expression of TLR3 relative to Control: normalized to GUSB, P<0.05
Description: (§1) The ability of HMOs to increase expression of mucosal innate immune receptors and cytokines was tested by exposing LS174T human colorectal cancer cells, which are a model of human intestinal goblet cells, to either of the HMOs, 2′-FL or LNnT. The LS174T cells were obtained from the American Type Culture Collection (ATCC). LS174T cells were maintained in minimum essential medium supplemented with 10% Fetalplex, 1.5 g/L of Na2CO3, 10 ml/L penicillin G-streptomycin solution at 37° C. in 5% CO2. Cells were plated at 0.2×10^5 cells/ml/well in 24-well plates and allowed to attach for 24-30 hours. Solutions containing each HMO were prepared by resuspending lyophilized HMO in cell culture grade water to a 10% solution and filter-sterilizing before diluting to the appropriate level in culture media. A solution free of carbohydrates (i.e., fresh medium alone, Control) was also prepared using the same procedure. After preparation of the HMO-containing solutions, the LS174T cell cultures were rinsed with 1×HBSS and then incubated in 0.5 ml of fresh medium alone (Control) or containing 0.1 mg/mL or 1 mg/mL of 2′-FL (2FL), LNnT (LNnT), fucose (FUCOSE), or lactose (LAC) for 48 hours. Cells were harvested at the end of incubation with 1 ml of TRIzol to obtain RNA samples. RNA expression levels of the genes for the mucosal innate immune receptor proteins TLR3, TLR4, CCR2 and the cytokine IL1B were determined by quantitative reverse transcriptase polymerase chain reaction (qRT-PCR) of RNA samples from the cells. Fold change (Fold induction) in the RNA expression levels of the genes for the receptor proteins and the cytokine was normalized based on the change in GUSB transcript expression. Reported fold changes are the mean+/−[…]. Treatments with statistically significant differences in fold expression (P<0.05) are reported with different letters above the bars.

IL1B = test: qRT-PCR RNA expression of cytokine IL1B gene in LS174T cells exposed to HMO; settings: 1 mg/mL, 48 hours, normalized to GUSB, P<0.05
Description: The ability of HMOs to increase expression of mucosal innate immune receptors and cytokines was tested by exposing LS174T human colorectal cancer cells, which are a model of human intestinal goblet cells, to either of the HMOs, 2′-FL or LNnT. The LS174T cells were obtained from the American Type Culture Collection (ATCC). LS174T cells were maintained in minimum essential medium supplemented with 10% Fetalplex, 1.5 g/L of Na2CO3, 10 ml/L penicillin G-streptomycin solution at 37° C. in 5% CO2. Cells were plated at 0.2×10^5 cells/ml/well in 24-well plates and allowed to attach for 24-30 hours. Solutions containing each HMO were prepared by resuspending lyophilized HMO in cell culture grade water to a 10% solution and filter-sterilizing before diluting to the appropriate level in culture media. A solution free of carbohydrates (i.e., fresh medium alone, Control) was also prepared using the same procedure. […] RNA expression levels of the genes for the mucosal innate immune receptor proteins TLR3, TLR4, CCR2 and the cytokine IL1B were determined by quantitative reverse transcriptase polymerase chain reaction (qRT-PCR) of RNA samples from the cells. […]

TLR4 = test: qRT-PCR RNA expression of TLR4 gene in LS174T cells exposed to HMO; settings: 48 hours; for fold change in RNA expression of TLR4 relative to Control: normalized to GUSB, P<0.05
Description: as §1

CCR2 = test: qRT-PCR RNA expression of CCR2 gene in LS174T cells exposed to HMO; settings: 48 hours; for fold change in RNA expression of CCR2 relative to Control: normalized to GUSB, P<0.05
Description: as §1

MUC2 = test: qRT-PCR RNA expression of MUC2 gene in LS174T cells exposed to HMO; settings: 0.1 mg/mL, 48 hours

| Molecule | fold change in RNA expression of TLR3 relative to Control (TLR3; 1 mg/mL) | fold change in RNA expression of IL1B relative to Control (IL1B) | fold change in RNA expression of TLR4 relative to Control (TLR4; 1 mg/mL) | fold change in RNA expression of CCR2 relative to Control (CCR2; 0.1 mg/mL) | fold change in RNA expression of CCR2 relative to Control (CCR2; 1 mg/mL) | increase in TLR3 expression, 0.1 mg/mL treatment compared with 1 mg/mL treatment (TLR3; 0.1 mg/mL vs 1 mg/mL) | fold change in RNA expression of TLR3 relative to Control (TLR3; 0.1 mg/mL) | MUC2 gene expression (MUC2) | increase in TLR4 expression, 0.1 mg/mL treatment compared with 1 mg/mL treatment (TLR4; 0.1 mg/mL vs 1 mg/mL) | fold change in RNA expression of TLR4 relative to Control (TLR4; 0.1 mg/mL) | increase in CCR2 expression, 0.1 mg/mL treatment compared with 1 mg/mL treatment (CCR2; 0.1 mg/mL vs 1 mg/mL) |
| --- | --- | --- | --- | --- | --- | --- | --- | --- | --- | --- | --- |
| CC(=O)N[C@H]1[C@H](O[C@H]2[C@@H](O)[C@@H](CO)O[C@@H](O[C@H]3[C@H](O)[C@@H](O)C(O)O[C@@H]3CO)[C@@H]2O)O[C@H](CO)[C@@H](O[C@@H]2O[C@H](CO)[C@H](O)[C@H](O)[C@H]2O)[C@@H]1O (mixture of isomers) [LNnT, lacto-N-neotetraose] | significant change in expression | significant change in expression | significant change in expression | significantly enhanced | significant change in expression | – | – | – | – | – | – |
| 2′-fucosyllactose [2′-FL] | statistically significant fold change | statistically significant fold change | statistically significant fold change | statistically significant fold change | statistically significant fold change | greater increase in expression in response to the 0.1 mg/mL 2′-FL treatment than the 1 mg/mL 2′-FL treatment | statistically significant fold change | significant increase | greater increase in expression in response to the 0.1 mg/mL 2′-FL treatment than the 1 mg/mL 2′-FL treatment | statistically significant fold change | greater increase in expression in response to the 0.1 mg/mL 2′-FL treatment than the 1 mg/mL 2′-FL treatment |

Source: patent US10792294B2, “Methods for enhancing mucosal innate immune responses to and/or detection of pathogens using human milk oligosaccharides” (ABBOTT LABORATORIES, priority 2014, dated 2020)
